target: T1, Axl (Homo sapiens, UniProt P30530); assay: Axl NanoBRET intracellular kinase assay (intracellular binding, Cell Binding); set-up: host or cells: HEK-293; conditions: HEK-293 cells transfected with Axl-NanoLuc fusion vector; 0.35 μM K-5 NanoBRET tracer
T1 sequence (P30530 26-894): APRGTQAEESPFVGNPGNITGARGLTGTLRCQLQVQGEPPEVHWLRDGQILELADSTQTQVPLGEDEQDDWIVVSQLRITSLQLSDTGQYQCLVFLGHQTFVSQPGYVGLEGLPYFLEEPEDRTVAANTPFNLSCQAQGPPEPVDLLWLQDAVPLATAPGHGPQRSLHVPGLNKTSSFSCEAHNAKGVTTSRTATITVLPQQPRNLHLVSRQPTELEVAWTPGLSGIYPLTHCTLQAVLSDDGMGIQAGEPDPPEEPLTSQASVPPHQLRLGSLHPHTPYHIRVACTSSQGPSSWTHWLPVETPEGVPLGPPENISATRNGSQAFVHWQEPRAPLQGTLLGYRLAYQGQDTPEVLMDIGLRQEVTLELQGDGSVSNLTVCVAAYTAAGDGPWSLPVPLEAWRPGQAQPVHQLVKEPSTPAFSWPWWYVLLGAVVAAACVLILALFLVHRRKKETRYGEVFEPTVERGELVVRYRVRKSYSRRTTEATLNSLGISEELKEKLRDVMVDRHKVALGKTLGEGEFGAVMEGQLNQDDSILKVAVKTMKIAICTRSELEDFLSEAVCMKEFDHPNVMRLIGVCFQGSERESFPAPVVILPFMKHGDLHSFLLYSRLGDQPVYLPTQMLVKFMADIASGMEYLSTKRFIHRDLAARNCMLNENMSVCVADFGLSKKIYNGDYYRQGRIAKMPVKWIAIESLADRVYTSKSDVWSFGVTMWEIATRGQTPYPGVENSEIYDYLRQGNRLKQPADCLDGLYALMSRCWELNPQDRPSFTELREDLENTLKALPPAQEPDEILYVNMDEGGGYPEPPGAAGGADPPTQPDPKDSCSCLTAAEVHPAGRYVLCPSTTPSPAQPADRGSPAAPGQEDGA
Outline: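 HEK-293 cells transiently expressing Axl-NanoLuc fusion were pre-incubated with compound for 1 h at 37 °C (0.5% DMSO), then with 0.35 μM K-5 tracer for 2 h. Tracer displacement read as reduced BRET ratio (610/450 nm); IC50 from 4-parameter fit.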

First: C[C@@H]1CCCN1C1CCc2ccc(-c3cnc4[nH]nc(-c5ccc(C(C)(C)O)cn5)c4c3)cc2CC1 (stereo partly drawn) [Example 97, 2-[6-(5-{7-[(2R)-2-Methylpyrrolidin-1-yl]-6,7,8,9-tetrahydro-5H-benzo[7]annulen-2-yl}-1H-pyrazolo[3,4-b]pyridin-3-yl)pyridin-3-yl]propan-2-ol]
Second: C[C@@H]1CCCN1C1(C)CCc2ccc(-c3cnc4[nH]nc(-c5cnc(C(C)(C)O)c(Cl)c5)c4c3)cc2CC1 (stereo partly drawn) [Example 98, 2-[3-Chloro-5-(5-{7-methyl-7-[(2R)-2-methylpyrrolidin-1-yl]-6,7,8,9-tetrahydro-5H-benzo[7]annulen-2-yl}-1H-pyrazolo[3,4-b]pyridin-3-yl)pyridin-2-yl]propan-2-ol]
The IC50 of the first is higher: > 1000 nM for the first, 100 to 1000 nM for the second.

`C[C@@H]1CCCN1C1(C)CCc2ccc(-c3cnc4[nH]nc(-c5ccc(C(=O)N[C@@H]6CCOC6)cc5)c4c3)cc2CC1` (stereo partly drawn) [Example 99, 4-(5-{7-Methyl-7-[(2R)-2-methylpyrrolidin-1-yl]-6,7,8,9-tetrahydro-5H-benzo[7]annulen-2-yl}-1H-pyrazolo[3,4-b]pyridin-3-yl)-N-[(3R)-oxolan-3-yl]benzamide] and `C[C@@H]1CCCN1C1(C)CCc2ccc(-c3cnc4[nH]nc(-c5ccc(C(=O)N[C@H]6CCOC6)cc5)c4c3)cc2CC1` (stereo partly drawn) [Example 117, 4-(5-{7-Methyl-7-[(2R)-2-methylpyrrolidin-1-yl]-6,7,8,9-tetrahydro-5H-benzo[7]annulen-2-yl}-1H-pyrazolo[3,4-b]pyridin-3-yl)-N-[(3S)-oxolan-3-yl]benzamide] cannot be ordered by IC50: < 100 nM for the first, < 100 nM for the second.

First: CCS(=N)(=O)c1ccc(-c2n[nH]c3ncc(-c4ccc5c(c4)CCC(C)(N4CCC[C@H]4C)CC5)cc23)cc1 (stereo partly drawn) [Example 100, Ethyl(imino)[4-(5-{7-methyl-7-[(2R)-2-methylpyrrolidin-1-yl]-6,7,8,9-tetrahydro-5H-benzo[7]annulen-2-yl}-1H-pyrazolo[3,4-b]pyridin-3-yl)phenyl]-λ^6-sulfanone]
Second: COCCS(=O)(=O)c1ccc(-c2n[nH]c3ncc(-c4ccc5c(c4)CCC(C)(N4CCC[C@H]4C)CC5)cc23)cc1 (stereo partly drawn) [Example 111, (2R)-1-(2-{3-[4-(2-Methoxyethanesulfonyl)phenyl]-1H-pyrazolo[3,4-b]pyridin-5-yl}-7-methyl-6,7,8,9-tetrahydro-5H-benzo[7]annulen-7-yl)-2-methylpyrrolidine]
The IC50 of the first is higher: 100 to 1000 nM for the first, < 100 nM for the second.

`C[C@@H]1CCCN1[C@@H]1CCc2cc(-c3cnc4[nH]nc(-c5ccc(S(=O)(=O)C6CC6)cc5)c4c3)cnc2CC1` [Example 101, (2R)-1-(3-{3-[4-(Cyclopropanesulfonyl)phenyl]-1H-pyrazolo[3,4-b]pyridin-5-yl}-5H,6H,7H,8H,9H-cyclohepta[b]pyridin-7-yl)-2-methylpyrrolidine] and `C[C@@H]1CCCN1[C@H]1CCc2cc(-c3cnc4[nH]nc(-c5ccc(S(=O)(=O)C6CC6)cc5)c4c3)cnc2CC1` [Example 102, (2R)-1-[(7S)-3-{3-[4-(Cyclopropanesulfonyl)phenyl]-1H-pyrazolo[3,4-b]pyridin-5-yl}-5H,6H,7H,8H,9H-cyclohepta[b]pyridin-7-yl]-2-methylpyrrolidine] cannot be ordered by IC50: > 1000 nM for the first, > 1000 nM for the second.

First: COC1CCN(S(=O)(=O)c2ccc(-c3n[nH]c4ncc(-c5ccc6c(c5)CCC(C)(N5CCC[C@H]5C)CC6)cc34)cc2)CC1 (stereo partly drawn) [Example 103, 3-(4-((4-Methoxypiperidin-1-yl)sulfonyl)phenyl)-5-(7-methyl-7-((R)-2-methylpyrrolidin-1-yl)-6,7,8,9-tetrahydro-5H-benzo[7]annulen-2-yl)-1H-pyrazolo[3,4-b]pyridine]
Second: C[C@@H]1CCCN1C1(C)CCc2ccc(-c3cnc4[nH]nc(-c5ccc(S(=O)(=O)N6CCC6)cc5)c4c3)cc2CC1 (stereo partly drawn) [Example 104, (2R)-1-(2-{3-[4-(Azetidine-1-sulfonyl)phenyl]-1H-pyrazolo[3,4-b]pyridin-5-yl}-7-methyl-6,7,8,9-tetrahydro-5H-benzo[7]annulen-7-yl)-2-methylpyrrolidine]
The IC50 of the first is higher: 100 to 1000 nM for the first, < 100 nM for the second.

Compared with `C[C@@H]1CCCN1C1(C)CCc2ccc(-c3cnc4[nH]cc(-c5ccc(S(=O)(=O)C6CC6)cc5)c4c3)cc2CC1` (stereo partly drawn) [Example 105, (2R)-1-(2-{3-[4-(Cyclopropanesulfonyl)phenyl]-1H-pyrrolo[2,3-b]pyridin-5-yl}-7-methyl-6,7,8,9-tetrahydro-5H-benzo[7]annulen-7-yl)-2-methylpyrrolidine], `CC1(N2CCc3ccc(-c4cnc5[nH]nc(-c6ccc(S(=O)(=O)C7CC7)cc6)c5c4)cc3CC2)CCCC1` [Example 120, 7-{3-[4-(Cyclopropanesulfonyl)phenyl]-1H-pyrazolo[3,4-b]pyridin-5-yl}-3-(1-methylcyclopentyl)-2,3,4,5-tetrahydro-1H-3-benzazepine] is higher in IC50: < 100 nM for the first, 100 to 1000 nM for the second.

Compared with `C[C@@H]1CCCN1C1(C)CCc2ccc(-c3cnc4[nH]nc(-c5ccc(N6CCOCC6)cc5)c4c3)cc2CC1` (stereo partly drawn) [Example 107, 4-[4-(5-{7-Methyl-7-[(2R)-2-methylpyrrolidin-1-yl]-6,7,8,9-tetrahydro-5H-benzo[7]annulen-2-yl}-1H-pyrazolo[3,4-b]pyridin-3-yl)phenyl]morpholine], `C[C@@H]1CCCN1C1(C)CCc2ccc(-c3cnc4[nH]nc(-c5ccc(C(=O)N6CCCC6)cc5)c4c3)cc2CC1` (stereo partly drawn) [Example 118, (2R)-2-Methyl-1-(7-methyl-2-{3-[4-(pyrrolidine-1-carbonyl)phenyl]-1H-pyrazolo[3,4-b]pyridin-5-yl}-6,7,8,9-tetrahydro-5H-benzo[7]annulen-7-yl)pyrrolidine] is lower in IC50: > 1000 nM for the first, < 100 nM for the second. The second is the more potent here.

First: COCCNCc1ccc(-c2n[nH]c3ncc(-c4ccc5c(c4)CCC(C)(N4CCC[C@H]4C)CC5)cc23)cc1 (stereo partly drawn) [Example 108, (2-Methoxyethyl)({[4-(5-{7-methyl-7-[(2R)-2-methylpyrrolidin-1-yl]-6,7,8,9-tetrahydro-5H-benzo[7]annulen-2-yl}-1H-pyrazolo[3,4-b]pyridin-3-yl)phenyl]methyl})amine]
Second: COCCOc1ccc(-c2n[nH]c3ncc(-c4ccc5c(c4)CCC(C)(N4CCC[C@H]4C)CC5)cc23)cc1 (stereo partly drawn) [Example 110, 3-(4-(2-Methoxyethoxy)phenyl)-5-(7-methyl-7-((R)-2-methylpyrrolidin-1-yl)-6,7,8,9-tetrahydro-5H-benzo[7]annulen-2-yl)-1H-pyrazolo[3,4-b]pyridine]
The IC50 of the first is higher: 100 to 1000 nM for the first, < 100 nM for the second. The second is the more potent here.

First: C[C@@H]1CCCN1C1CCc2ccc(-c3cnc4[nH]nc(-c5ccc(S(=O)(=O)C6CC6)cc5)c4c3)cc2C(C)(C)C1 (stereo partly drawn) [Example 109, (2R)-1-(2-{3-[4-(Cyclopropanesulfonyl)phenyl]-1H-pyrazolo[3,4-b]pyridin-5-yl}-9,9-dimethyl-6,7,8,9-tetrahydro-5H-benzo[7]annulen-7-yl)-2-methylpyrrolidine]
Second: O=C([C@@H]1CCCN1)N1CCc2ccc(-c3cnc4[nH]nc(-c5ccc(S(=O)(=O)C6CC6)cc5)c4c3)cc2CC1 [Example 112, 7-{3-[4-(Cyclopropanesulfonyl)phenyl]-1H-pyrazolo[3,4-b]pyridin-5-yl}-3-[(2S)-pyrrolidine-2-carbonyl]-2,3,4,5-tetrahydro-1H-3-benzazepine]
The IC50 of the first is lower: < 100 nM for the first, 100 to 1000 nM for the second.

`O=C([C@H]1CCCN1)N1CCc2ccc(-c3cnc4[nH]nc(-c5ccc(S(=O)(=O)C6CC6)cc5)c4c3)cc2CC1` [Example 113, 7-{3-[4-(Cyclopropanesulfonyl)phenyl]-1H-pyrazolo[3,4-b]pyridin-5-yl}-3-[(2R)-pyrrolidine-2-carbonyl]-2,3,4,5-tetrahydro-1H-3-benzazepine] and `CC1(N[C@H]2CCOC2)CCc2ccc(-c3cnc4[nH]nc(-c5ccc(S(=O)(=O)C6CC6)cc5)c4c3)cc2CC1` (stereo partly drawn) [Example 115, (3S)-N-(2-{3-[4-(Cyclopropanesulfonyl)phenyl]-1H-pyrazolo[3,4-b]pyridin-5-yl}-7-methyl-6,7,8,9-tetrahydro-5H-benzo[7]annulen-7-yl)oxolan-3-amine] fall in the same range of IC50: 100 to 1000 nM for the first, 100 to 1000 nM for the second.

First: COc1cc(-c2n[nH]c3ncc(-c4ccc5c(c4)CCC(C)(N4CCC[C@H]4C)CC5)cc23)ccc1OC[C@H]1COCCO1 (stereo partly drawn) [Example 114, (2R)-1-{2-[3-(4-{[(2R)-1,4-Dioxan-2-yl]methoxy}-3-methoxyphenyl)-1H-pyrazolo[3,4-b]pyridin-5-yl]-7-methyl-6,7,8,9-tetrahydro-5H-benzo[7]annulen-7-yl}-2-methylpyrrolidine]
Second: Cc1cc(-c2n[nH]c3ncc(-c4ccc5c(c4)CCN(C4CC4)CC5)cc23)ccc1C(=O)N1CCNCC1 [Example 119, 3-Cyclopropyl-7-{3-[3-methyl-4-(piperazine-1-carbonyl)phenyl]-1H-pyrazolo[3,4-b]pyridin-5-yl}-2,3,4,5-tetrahydro-1H-3-benzazepine]
The IC50 of the first is lower: < 100 nM for the first, 100 to 1000 nM for the second. The first is the more potent here.

— patent US20240246967A1, “AXL COMPOUNDS” (ARCUS BIOSCIENCES, INC., priority 2021, published 2024)
